In article PMC2610413 (Bioorganic & medicinal chemistry letters, 2008):
Values belong to the compound of their own block, whether it stands above or below them.

Tests used:
[1] = target: T1, Bmx (Homo sapiens, UniProt P51813); test: Biochemical enzymatic kinase assay, Bmx
T1 sequence (P51813 1-675): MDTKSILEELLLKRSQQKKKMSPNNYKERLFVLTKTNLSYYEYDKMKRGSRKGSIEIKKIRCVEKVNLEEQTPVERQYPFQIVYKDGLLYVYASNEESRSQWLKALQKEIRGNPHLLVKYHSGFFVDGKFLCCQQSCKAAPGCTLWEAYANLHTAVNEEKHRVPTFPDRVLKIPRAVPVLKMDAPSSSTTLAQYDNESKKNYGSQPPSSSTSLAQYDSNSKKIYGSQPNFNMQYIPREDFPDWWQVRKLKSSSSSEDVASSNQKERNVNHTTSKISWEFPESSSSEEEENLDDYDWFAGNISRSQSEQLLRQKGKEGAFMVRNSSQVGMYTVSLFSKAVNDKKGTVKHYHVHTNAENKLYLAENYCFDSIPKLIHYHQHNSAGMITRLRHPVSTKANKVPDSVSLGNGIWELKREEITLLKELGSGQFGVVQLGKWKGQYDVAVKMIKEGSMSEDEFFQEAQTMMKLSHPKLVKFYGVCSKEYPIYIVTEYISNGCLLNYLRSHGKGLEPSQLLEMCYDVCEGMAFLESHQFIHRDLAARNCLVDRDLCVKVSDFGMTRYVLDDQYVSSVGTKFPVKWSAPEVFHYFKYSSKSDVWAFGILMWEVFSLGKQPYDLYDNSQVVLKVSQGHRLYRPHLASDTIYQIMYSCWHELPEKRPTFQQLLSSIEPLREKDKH

[2] = target: Tel-wild-type Bmx transformed Ba/F3 cells (Homo sapiens, UniProt P51813); test: Cytotoxicity assay, Tel-wild-type Bmx transformed Ba/F3 cells; assay type: cell-based; details: cellular assay
Sequence of Tel-wild-type Bmx transformed Ba/F3 cells (P41212 1-336 partner, one chain of several): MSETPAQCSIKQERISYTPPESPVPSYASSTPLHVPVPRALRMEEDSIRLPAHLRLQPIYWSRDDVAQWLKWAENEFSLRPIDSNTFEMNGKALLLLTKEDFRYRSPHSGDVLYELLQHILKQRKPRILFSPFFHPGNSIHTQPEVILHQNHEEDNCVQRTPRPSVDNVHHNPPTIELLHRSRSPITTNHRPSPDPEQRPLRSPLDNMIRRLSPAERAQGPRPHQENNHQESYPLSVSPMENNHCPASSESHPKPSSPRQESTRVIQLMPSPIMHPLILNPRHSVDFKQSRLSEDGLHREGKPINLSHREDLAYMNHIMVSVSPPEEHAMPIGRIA

[3] = target: Bmx kinase domain (Homo sapiens, UniProt P51813); test: Mass spectrometry of covalent modification of recombinant Bmx kinase domain; assay type: binding
[4] = target: T2, full-length Flag-Bmx (Homo sapiens, UniProt P51813); details: 10 μM; immunoprecipitated Flag-Bmx pre-incubated with drug at 4°C for 2 hrs
T2 sequence (P51813 1-675): T1 sequence (P51813 1-675)

[5] = tested on: EGFR (T790M); details: cited from earlier work
[6] = target: Blk (Homo sapiens, UniProt P51451); test: Biochemical enzymatic kinase assay, Blk
Sequence of Blk (P51451 whole entry, species assumed): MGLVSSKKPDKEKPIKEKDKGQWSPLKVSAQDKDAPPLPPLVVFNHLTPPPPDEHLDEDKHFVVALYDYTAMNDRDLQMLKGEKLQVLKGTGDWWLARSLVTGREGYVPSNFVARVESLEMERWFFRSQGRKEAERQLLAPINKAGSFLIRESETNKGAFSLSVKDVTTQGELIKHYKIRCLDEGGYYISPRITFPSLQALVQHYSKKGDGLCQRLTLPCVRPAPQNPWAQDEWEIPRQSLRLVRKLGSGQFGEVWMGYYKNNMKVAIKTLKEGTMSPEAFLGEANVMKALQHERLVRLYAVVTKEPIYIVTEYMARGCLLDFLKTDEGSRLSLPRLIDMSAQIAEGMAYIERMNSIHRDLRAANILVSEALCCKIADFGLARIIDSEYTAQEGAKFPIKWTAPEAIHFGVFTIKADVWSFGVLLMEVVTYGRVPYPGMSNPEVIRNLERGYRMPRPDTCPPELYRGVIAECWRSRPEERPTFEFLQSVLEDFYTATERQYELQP

[7] = tested on: Tel-tyrosine kinase (Blk) transformed Ba/F3 cells; test: Cytotoxicity assay, Tel-Blk transformed Ba/F3 cells; details: cellular assay
[8] = cited from earlier work

SMILES: C=CC(=O)Nc1ccc2ncnc(Nc3cccc(Br)c3)c2c1 [PD168393]
inhibitory activity against Bmx [1]: only moderate potency
inhibitory activity against Bmx [2]: only moderate potency
site of modification ([3]; chymotryptic peptide ISNGCLL, tandem MS): modification of cysteine 496
mass increase of Bmx kinase domain after incubation with inhibitor ([3]; consistent with covalent addition of a single inhibitor molecule): 369 Da

in vitro autophosphorylation of Bmx (32P incorporation) [4]: not affected
SMILES: C#Cc1cccc(Nc2ncnc3cc(OCCOC)c(OCCOC)cc23)c1 [erlotinib]

SMILES: CCOc1cc2ncc(C#N)c(Nc3ccc(F)c(Cl)c3)c2cc1NC(=O)/C=C/CN(C)C [EKB-569]
inhibition of EGFR (T790M) [5]: strongly inhibit

SMILES: C=CC(=O)Nc1cc2c(Nc3ccc(F)c(Cl)c3)ncnc2cc1OCCCN1CCOCC1 [CI-1033]
inhibitory activity against Blk [6]: potent inhibitory activity
inhibitory activity against Blk [7]: potent inhibitory activity
toxicity in clinical phase II study [8]: severe toxicity
